Test results taken from US20260355165A1, “2,3,4,9-TETRAHYDRO-1H-PYRIDO[3,4-B]INDOLE DERIVATIVES AS ESTROGEN RECEPTOR MODULATORS FOR THE TREATMENT OF CANCER” (Olema Pharmaceuticals, Inc., priority 2022, published 2026).

molecular target: T1, estrogen receptor (Homo sapiens, UniProt P03372); assay: AP assay (alkaline phosphatase activity in ECC-1 cells), agonist mode (absence of E2) and antagonist mode (presence of 500 pM E2); type: cell-based; conditions: 3 days, AP activity normalized to 500 pM E2 alone, agonist and antagonist mode combined
T1 construct: endogenous in cells; host or cells: ECC-1 cells
T1 sequence (P03372 1-595): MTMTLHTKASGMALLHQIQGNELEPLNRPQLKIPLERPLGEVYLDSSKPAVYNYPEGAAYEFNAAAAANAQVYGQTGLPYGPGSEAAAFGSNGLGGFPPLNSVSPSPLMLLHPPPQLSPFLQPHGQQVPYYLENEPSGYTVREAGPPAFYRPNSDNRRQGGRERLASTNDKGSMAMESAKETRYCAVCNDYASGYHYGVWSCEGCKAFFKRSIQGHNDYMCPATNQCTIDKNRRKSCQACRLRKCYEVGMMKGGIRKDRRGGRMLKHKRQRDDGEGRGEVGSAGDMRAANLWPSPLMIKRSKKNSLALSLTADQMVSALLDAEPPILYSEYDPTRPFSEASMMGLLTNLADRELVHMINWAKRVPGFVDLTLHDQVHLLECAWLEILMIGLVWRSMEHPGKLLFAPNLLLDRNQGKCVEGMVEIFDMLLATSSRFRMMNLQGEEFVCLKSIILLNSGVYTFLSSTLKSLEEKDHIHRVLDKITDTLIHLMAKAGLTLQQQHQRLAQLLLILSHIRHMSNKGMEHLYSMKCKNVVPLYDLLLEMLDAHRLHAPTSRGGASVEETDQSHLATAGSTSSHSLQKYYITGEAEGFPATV
Experimental: ECC-1 cells were trypsinized and resuspended in hormone-depleted media and plated at a density of 15 k cells per well into a 96-well plate for at least 4 hours. Cells were treated with test compounds in the absence of E2 (for agonist mode) or in the presence of 500 pM E2 (for antagonist mode) for 3 days and plates were subsequently frozen at −80 °C. Thawed plates were incubated with a chromogenic substrate of AP, p-nitrophenyl phosphate (Thermo Fisher Scientific), for 40 minutes at 42 °C, and absorbances were read at 405 nm. AP activity was normalized to the activity of 500 pM E2 alone.
The compound numbers correspond to the compound numbers of Table 1 and 2. Compounds having an activity designated as “+” provided estrogen receptor agonism having (i) at least 80% increase in the E2-normalized signal in the AP assay (agonist mode) and (ii) no more than 80% reduction in the E2-normalized signal in the AP assay (antagonist mode). Compounds having an activity designated as “++” provided estrogen receptor antagonism having (i) between 10% and 80% increase in the E2-normalized signal in the AP assay (agonist mode) and (ii) between 10% and 80% reduction in the E2-normalized signal in the AP assay (antagonist mode).

Structure (SMILES) | Activity (estrogen receptor modulation, e.g., agonism and antagonism)
C[C@@H]1Cc2c([nH]c3ccccc23)[C@@H](c2cc3ccc(CN4CC(CF)C4)cc3[nH]2)N1CC(C)(C)F [Compound I-56, (1R,3R)-1-[6-[[3-(fluoromethyl)azetidin-1-yl]methyl]-1H-indol-2-yl]-2-(2-fluoro-2-methyl-propyl)-3-methyl-1,3,4,9-tetrahydropyrido[3,4-b]indole] | + (estrogen receptor agonism having (i) at least 80% increase in the E2-normalized signal in the AP assay (agonist mode) and (ii) no more than 80% reduction in the E2-normalized signal in the AP assay (antagonist mode))
C[C@@H]1Cc2c([nH]c3ccccc23)[C@@H](c2ccc3[nH]c(CN4CC(C)(F)C4)cc3c2)N1CC(C)(C)F [Compound I-102, (1R,3R)-1-[2-[(3-fluoro-3-methyl-azetidin-1-yl)methyl]-1H-indol-5-yl]-2-(2-fluoro-2-methyl-propyl)-3-methyl-1,3,4,9-tetrahydropyrido[3,4-b]indole] | ++ (estrogen receptor antagonism having (i) between 10% and 80% increase in the E2-normalized signal in the AP assay (agonist mode) and (ii) between 10% and 80% reduction in the E2-normalized signal in the AP assay (antagonist mode))
C[C@@H]1Cc2c([nH]c3ccccc23)[C@@H](c2cc3[nH]c(CN4CC(CF)C4)cc3s2)N1CC(C)(C)F [Compound I-64, 5-[[3-(fluoromethyl)azetidin-1-yl]methyl]-2-[(1S,3R)-2-(2-fluoro-2-methyl-propyl)-3-methyl-1,3,4,9-tetrahydropyrido[3,4-b]indol-1-yl]-4H-thieno[3,2-b]pyrrole] | ++ (estrogen receptor antagonism having (i) between 10% and 80% increase in the E2-normalized signal in the AP assay (agonist mode) and (ii) between 10% and 80% reduction in the E2-normalized signal in the AP assay (antagonist mode))
C[C@@H]1Cc2c([nH]c3ccccc23)[C@@H](c2n[nH]c3cc(CO)ccc23)N1CC(C)(C)F [Compound I-2, [3-[(1S,3R)-2-(2-fluoro-2-methyl-propyl)-3-methyl-1,3,4,9-tetrahydropyrido[3,4-b]indol-1-yl]-1H-indazol-6-yl]methanol] | + (estrogen receptor agonism having (i) at least 80% increase in the E2-normalized signal in the AP assay (agonist mode) and (ii) no more than 80% reduction in the E2-normalized signal in the AP assay (antagonist mode))
C[C@@H]1Cc2c([nH]c3ccccc23)[C@@H](c2c[nH]c3cc(CN4CC(CF)C4)ccc23)N1CC(C)(C)F [Compound I-5, (1R,3R)-1-[6-[[3-(fluoromethyl)azetidin-1-yl]methyl]-1H-indol-3-yl]-2-(2-fluoro-2-methyl-propyl)-3-methyl-1,3,4,9-tetrahydropyrido[3,4-b]indole] | ++ (estrogen receptor antagonism having (i) between 10% and 80% increase in the E2-normalized signal in the AP assay (agonist mode) and (ii) between 10% and 80% reduction in the E2-normalized signal in the AP assay (antagonist mode))
C[C@@H]1Cc2c([nH]c3ccccc23)[C@@H](c2n[nH]c3cc(C(=O)O)ccc23)N1CC(C)(C)F [Compound I-4, 3-[(1S,3R)-2-(2-fluoro-2-methyl-propyl)-3-methyl-1,3,4,9-tetrahydropyrido[3,4-b]indol-1-yl]-1H-indazole-6-carboxylic acid] | + (estrogen receptor agonism having (i) at least 80% increase in the E2-normalized signal in the AP assay (agonist mode) and (ii) no more than 80% reduction in the E2-normalized signal in the AP assay (antagonist mode))
C[C@@H]1Cc2c([nH]c3ccccc23)[C@@H](c2ccc3[nH]c(CN4CC(C(F)F)C4)cc3c2)N1CC(C)(C)F [Compound I-100, (1R,3R)-1-[2-[[3-(difluoromethyl)azetidin-1-yl]methyl]-1H-indol-5-yl]-2-(2-fluoro-2-methyl-propyl)-3-methyl-1,3,4,9-tetrahydropyrido[3,4-b]indole] | ++ (estrogen receptor antagonism having (i) between 10% and 80% increase in the E2-normalized signal in the AP assay (agonist mode) and (ii) between 10% and 80% reduction in the E2-normalized signal in the AP assay (antagonist mode))
C[C@@H]1Cc2c([nH]c3ccccc23)[C@@H](c2ccc3[nH]c(CN4CC5(CC(F)C5)C4)cc3c2)N1CC(C)(C)F [Compound I-87, (1R,3R)-1-(2-((6-fluoro-2-azaspiro[3.3]heptan-2-yl)methyl)-1H-indol-5-yl)-2-(2-fluoro-2-methylpropyl)-3-methyl-2,3,4,9-tetrahydro-1H-pyrido[3,4-b]indole] | + (estrogen receptor agonism having (i) at least 80% increase in the E2-normalized signal in the AP assay (agonist mode) and (ii) no more than 80% reduction in the E2-normalized signal in the AP assay (antagonist mode))
C[C@@H]1Cc2c([nH]c3ccccc23)[C@@H](c2ccc3[nH]c(CN4CC5(CC(O)C5)C4)cc3c2)N1CC(C)(C)F [Compound I-53, 2-[[5-[(1R,3R)-2-(2-fluoro-2-methyl-propyl)-3-methyl-1,3,4,9-tetrahydropyrido[3,4-b]indol-1-yl]-1H-indol-2-yl]methyl]-2-azaspiro[3.3]heptan-6-ol] | + (estrogen receptor agonism having (i) at least 80% increase in the E2-normalized signal in the AP assay (agonist mode) and (ii) no more than 80% reduction in the E2-normalized signal in the AP assay (antagonist mode))
C[C@@H]1Cc2c([nH]c3ccccc23)[C@@H](c2ccc3oc(CN4CC(CF)C4)nc3c2)N1CC(C)(C)F [Compound I-75, 2-[[3-(fluoromethyl)azetidin-1-yl]methyl]-5-[(1R,3R)-2-(2-fluoro-2-methyl-propyl)-3-methyl-1,3,4,9-tetrahydropyrido[3,4-b]indol-1-yl]-1,3-benzoxazole] | +++ (estrogen receptor antagonism (i) with pIC50 greater than 7.5 and at least a 10% reduction in the E2-normalized signal in the AP assay (antagonist mode); and (ii) no more than 10% increase in E2-normalized signal in the AP assay (agonist mode))
C[C@@H]1Cc2c([nH]c3ccccc23)[C@@H](c2c[nH]c3cc(CN4CC(CF)C4)ccc23)N1CC(F)(F)CO [Compound I-15, 2,2-difluoro-3-[(1R,3R)-1-[6-[[3-(fluoromethyl)azetidin-1-yl]methyl]-1H-indol-3-yl]-3-methyl-1,3,4,9-tetrahydropyrido[3,4-b]indol-2-yl]propan-1-ol] | ++ (estrogen receptor antagonism having (i) between 10% and 80% increase in the E2-normalized signal in the AP assay (agonist mode) and (ii) between 10% and 80% reduction in the E2-normalized signal in the AP assay (antagonist mode))
C[C@@H]1Cc2c([nH]c3ccccc23)[C@@H](c2c[nH]c3c(F)c(CN4CC(CF)C4)ccc23)N1CC(C)(C)F [Compound I-29, (1R,3R)-1-[7-fluoro-6-[[3-(fluoromethyl)azetidin-1-yl]methyl]-1H-indol-3-yl]-2-(2-fluoro-2-methyl-propyl)-3-methyl-1,3,4,9-tetrahydropyrido[3,4-b]indole] | ++ (estrogen receptor antagonism having (i) between 10% and 80% increase in the E2-normalized signal in the AP assay (agonist mode) and (ii) between 10% and 80% reduction in the E2-normalized signal in the AP assay (antagonist mode))
